Laboratory results taken from patent US11963960B2 (Flash Therapeutics, LLC, priority 2020, dated 2024).
Where two headings read alike, the source gives them in different places.

Biological target: N-terminally GST-tagged HCK (75-526) (Homo sapiens (Human), UniProt P08631)
Assay: HCK Kinase Assay (ProFluor Src-Family Kinase Assay)
Format: biochemical
Experimental: The procedure of ProFluor Src-Family Kinase Assay (Promega, Cat. No. V1271) was then followed. To the reaction was added 5 μL Protease solution and the mixture was incubated for 60 minutes at room temperature (22-25° C.), followed by 5 μL Stabilizer solution. The fluorescence signal was read on an Envision multilabel plate reader (Perkin Elmer). The R110 was then read at an excitation wavelength of 485 nm and an emission wavelength of 530 nm. The AMC signal was read at an excitation wavelength of 355 nm and an emission wavelength of 460 nm.

[1] = HCK inhibitory activity, 50 μM ATP, read-out: HCK Activity

N-terminally GST-tagged HCK (75-526), sequence (P08631 75-526): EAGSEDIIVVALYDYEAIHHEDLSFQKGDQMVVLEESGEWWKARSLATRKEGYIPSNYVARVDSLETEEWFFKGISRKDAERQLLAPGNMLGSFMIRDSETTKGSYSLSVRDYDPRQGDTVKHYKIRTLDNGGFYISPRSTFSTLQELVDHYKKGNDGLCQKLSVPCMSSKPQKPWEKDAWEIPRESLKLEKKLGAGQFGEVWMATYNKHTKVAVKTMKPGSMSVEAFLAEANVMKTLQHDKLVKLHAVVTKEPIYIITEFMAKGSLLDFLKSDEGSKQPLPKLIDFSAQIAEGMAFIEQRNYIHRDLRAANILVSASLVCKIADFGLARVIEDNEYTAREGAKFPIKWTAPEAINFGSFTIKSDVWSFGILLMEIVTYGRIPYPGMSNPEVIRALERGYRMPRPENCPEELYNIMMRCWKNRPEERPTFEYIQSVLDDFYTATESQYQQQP

Molecule Nc1ncnc2c1c(-c1ccc(Oc3ccccc3)cc1)cn2[C@H]1CC[C@@H](N2CCN3CCCC3C2)CC1 (stereo partly drawn) [Example 45, 7-((cis)-4-(hexahydropyrrolo[1,2-a]pyrazin-2(1H)-yl)cyclohexyl)-5-(4-phenoxyphenyl)-7H-pyrrolo[2,3-d]pyrimidin-4-amine] has an IC50 [1] of 250 to 10000 nM.

In the case of CP1(=O)CCN([C@H]2CC[C@@H](n3cc(-c4ccc(Oc5ccccc5)cc4)c4c(N)ncnc43)CC2)CC1 [Example 68, 1-((cis)-4-(4-amino-5-(4-phenoxyphenyl)-7H-pyrrolo[2,3-d]pyrimidin-7-yl)cyclohexyl)-4-methyl-1,4-azaphosphinane 4-oxide], the IC50 [1] is reported as under 50 nM.

In the case of NC(=O)CC1(N)CCC(n2cc(-c3ccc(Oc4ccccc4)cc3)c3c(N)ncnc32)CC1 (stereo not drawn) [Example 96, 2-(1-Amino-4-(4-amino-5-(4-phenoxyphenyl)-7H-pyrrolo[2,3-d]pyrimidin-7-yl)cyclohexyl)acetamide], the IC50 [1] is reported as under 50 nM.

CC(C)(O)CN1CCN([C@H]2CC[C@H](n3cc(-c4ccc(Oc5ccccc5)cc4)c4c(N)ncnc43)CC2)CC1 [Example 89, 1-(4-((trans)-4-(4-amino-5-(4-phenoxyphenyl)-7H-pyrrolo[2,3-d]pyrimidin-7-yl)cyclohexyl)piperazin-1-yl)-2-methylpropan-2-ol] gave an IC50 [1] of under 50 nM.

C[C@H]1CN([C@H]2CC[C@@H](n3nc(-c4ccc(Oc5ccccc5)cc4F)c4c(N)ncnc43)CC2)CCN1 [Example 128, 3-(2-fluoro-4-phenoxyphenyl)-1-((cis)-4-((S)-3-methylpiperazin-1-yl)cyclohexyl)-1H-pyrazolo[3,4-d]pyrimidin-4-amine] gave an IC50 [1] of 50 to 250 nM.

Work on NCC1OCC(N2CCC(n3cc(-c4ccc(Oc5ccccc5)cc4)c4c(N)ncnc43)CC2)CO1 (stereo not drawn) [Example 162, 7-(1-(2-(aminomethyl)-1,3-dioxan-5-yl)piperidin-4-yl)-5-(4-phenoxyphenyl)-7H-pyrrolo[2,3-d]pyrimidin-4-amine] yielded an IC50 [1] of under 50 nM.

CN1CCN([C@H]2CC[C@@H](c3nc(-c4ccc(Oc5ccccc5)cc4)c4c(N)nccn43)CC2)CC1 [Example 174, 3-((cis)-4-(4-Methylpiperazin-1-yl)cyclohexyl)-1-(4-phenoxyphenyl)imidazo[1,5-a]pyrazin-8-amine] showed an IC50 [1] of 250 to 10000 nM.

Work on CCOC(=O)C1CC12CCC(n1cc(-c3ccc(Oc4ccccc4)cc3)c3c(N)ncnc31)CC2 (stereo not drawn) [Example 99, Ethyl 6-(4-amino-5-(4-phenoxyphenyl)-7H-pyrrolo[2,3-d]pyrimidin-7-yl)spiro[2.5]octane-1-carboxylate] yielded an IC50 [1] of under 50 nM.

Nc1ncnc2c1c(-c1ccc(Oc3ccccc3)cc1)cn2[C@H]1CC[C@H](N2CCC(N)CC2)CC1 [Example 52, 7-((trans)-4-(4-aminopiperidin-1-yl)cyclohexyl)-5-(4-phenoxyphenyl)-7H-pyrrolo[2,3-d]pyrimidin-4-amine] showed an IC50 [1] of under 50 nM.

For C[C@H]1CN([C@H]2CC[C@H](c3cc(-c4ccc(Oc5ccccc5)cc4)c4c(N)ncnn43)CC2)CCN1 [Example 169, 7-((trans)-4-((S)-3-Methylpiperazin-1-yl)cyclohexyl)-5-(4-phenoxyphenyl)pyrrolo[2,1-f][1,2,4]triazin-4-amine], the IC50 [1] was under 50 nM.

Molecule CN(C)[C@@H]1CCCN([C@H]2CC[C@H](n3cc(-c4ccc(Oc5ccccc5)cc4)c4c(N)ncnc43)CC2)C1 [Example 62, 7-((trans)-4-((R)-3-(dimethylamino)piperidin-1-yl)cyclohexyl)-5-(4-phenoxyphenyl)-7H-pyrrolo[2,3-d]pyrimidin-4-amine] has an IC50 [1] of under 50 nM.

CN1CCN([C@H]2CC[C@H](n3cc(-c4ccc(Oc5ccccc5F)cc4)c4c(N)ncnc43)CC2)CC1 [Example 108, 5-(4-(2-fluorophenoxy)phenyl)-7-((trans)-4-(4-methylpiperazin-1-yl)cyclohexyl)-7H-pyrrolo[2,3-d]pyrimidin-4-amine] was tested, and the IC50 [1] was under 50 nM.

For Nc1ncnc2c1c(-c1ccc(Oc3ccccc3)cc1)cn2[C@H]1CC[C@H](N2CCC[C@H](N)C2)CC1 [Example 56, 7-((trans)-4-((S)-3-aminopiperidin-1-yl)cyclohexyl)-5-(4-phenoxyphenyl)-7H-pyrrolo[2,3-d]pyrimidin-4-amine], the IC50 [1] was under 50 nM.

[2H]C([2H])([2H])N1CCN([C@H]2CC[C@@H](n3cc(-c4ccc(Oc5ccccc5)cc4)c4c(N)ncnc43)CC2)CC1 (single isomer, unassigned) [Example 4, 7-((cis)-4-(4-(trideuteriomethyl)piperazin-1-yl)cyclohexyl)-5-(4-phenoxyphenyl)-7H-pyrrolo[2,3-d]pyrimidin-4-amine] showed an IC50 of 250 to 10000 nM.

Nc1ncnc2c1c(-c1ccc(NC(=O)CCc3ccccc3)cc1)cn2C1CCC(C2OCC(N)CO2)CC1 (stereo not drawn) [Example 139, N-(4-(4-Amino-7-(4-(5-amino-1,3-dioxan-2-yl)cyclohexyl)-7H-pyrrolo[2,3-d]pyrimidin-5-yl)phenyl)-3-phenylpropanamide] gave an IC50 [1] of 50 to 250 nM.

In the case of C[C@@H]1CN([C@H]2CC[C@H](n3cc(-c4ccc(Oc5ccccc5)cc4F)c4c(N)ncnc43)CC2)CCN1 [Example 15, 5-(2-fluoro-4-phenoxyphenyl)-7-((trans)-4-((R)-3-methylpiperazin-1-yl)cyclohexyl)-7H-pyrrolo[2,3-d]pyrimidin-4-amine], the IC50 [1] is reported as under 50 nM.

With [2H]C([2H])([2H])N1C([2H])([2H])C([2H])([2H])N([C@H]2CC[C@H](n3cc(-c4ccc(Oc5ccccc5)cc4)c4c(N)ncnc43)CC2)C([2H])([2H])C1([2H])[2H] (single isomer, unassigned) [Example 5, 7-((trans)-4-(4-d3-methyl-d8-piperazin-1-yl)cyclohexyl)-5-(4-phenoxyphenyl)-7H-pyrrolo[2,3-d]pyrimidin-4-amine] the IC50 was 250 to 10000 nM.

CN1CCN([C@H]2CC[C@@H](n3cc(-c4ccc(Oc5ccccc5)cc4)c4c(N)ncnc43)CC2)CC1 [Example 2, 7-((cis)-4-(4-methylpiperazin-1-yl)cyclohexyl)-5-(4-phenoxyphenyl)-7H-pyrrolo[2,3-d]pyrimidin-4-amine] gave an IC50 of 50 to 250 nM.

With Nc1ncnc2c1c(-c1ccc(Oc3ccccc3)cc1)cn2[C@H]1CC[C@@H](N2CCNC3(CC3)C2)CC1 [Example 36, 7-((cis)-4-(4,7-diazaspiro[2.5]octan-7-yl)cyclohexyl)-5-(4-phenoxyphenyl)-7H-pyrrolo[2,3-d]pyrimidin-4-amine] the IC50 [1] was 50 to 250 nM.

For CNC(=O)C=C1CCC(n2cc(-c3ccc(Oc4ccccc4)cc3)c3c(N)ncnc32)CC1 (stereo not drawn) [Example 97, 2-(4-(4-amino-5-(4-phenoxyphenyl)-7H-pyrrolo[2,3-d]pyrimidin-7-yl)cyclohexylidene)-N-methylacetamide], the IC50 [1] was under 50 nM.

Work on C[C@H]1CC(N2CCC(n3cc(-c4ccc(Oc5ccccc5)cc4)c4c(N)ncnc43)CC2)CCN1 (stereo partly drawn) [Example 154, 7-((2′S)-2′-methyl-[1,4′-bipiperidin]-4-yl)-5-(4-phenoxyphenyl)-7H-pyrrolo[2,3-d]pyrimidin-4-amine] yielded an IC50 [1] of under 50 nM.

CN1CCN([C@H]2CC[C@H](n3cc(-c4ccc(Oc5ccccc5)cc4F)c4c(N)ncnc43)CC2)CC1 [Example 105, 5-(2-fluoro-4-phenoxyphenyl)-7-((trans)-4-(4-methylpiperazin-1-yl)cyclohexyl)-7H-pyrrolo[2,3-d]pyrimidin-4-amine] gave an IC50 [1] of under 50 nM.

For Nc1ncnc2c1c(-c1ccc(Oc3ccccc3)cc1)cn2[C@H]1CC[C@@H](N2CCC[C@@H](N)C2)CC1 [Example 58, 7-((cis)-4-((R)-3-aminopiperidin-1-yl)cyclohexyl)-5-(4-phenoxyphenyl)-7H-pyrrolo[2,3-d]pyrimidin-4-amine], the IC50 [1] was 50 to 250 nM.

CC[C@H]1CN([C@H]2CC[C@@H](n3cc(-c4ccc(Oc5ccccc5)cc4)c4c(N)ncnc43)CC2)CCN1 [Example 30, 7-((cis)-4-((S)-3-ethylpiperazin-1-yl)cyclohexyl)-5-(4-phenoxyphenyl)-7H-pyrrolo[2,3-d]pyrimidin-4-amine] showed an IC50 [1] of 50 to 250 nM.

Nc1ncnc2c1c(-c1ccc(Oc3ccccc3)cc1)cn2[C@H]1CC[C@H](NCc2n[nH]c(=O)[nH]2)CC1 [Example 85, 3-((((trans)-4-(4-amino-5-(4-phenoxyphenyl)-7H-pyrrolo[2,3-d]pyrimidin-7-yl)cyclohexyl)amino)methyl)-1H-1,2,4-triazol-5(4H)-one] showed an IC50 [1] of under 50 nM.

Molecule CN1CCN([C@H]2CC[C@H](n3cc(-c4ccc(Oc5ccccc5)cc4Cl)c4c(N)ncnc43)CC2)CC1 [Example 106, 5-(2-chloro-4-phenoxyphenyl)-7-((trans)-4-(4-methylpiperazin-1-yl)cyclohexyl)-7H-pyrrolo[2,3-d]pyrimidin-4-amine] has an IC50 [1] of under 50 nM.

In the case of C[C@H]1CN([C@H]2CC[C@H](n3cc(-c4ccc(NC(=O)Nc5cc(C(C)(C)C)on5)cc4)c4c(N)ncnc43)CC2)CCN1 [Example 129, 1-(4-(4-amino-7-((trans)-4-((S)-3-methylpiperazin-1-yl)cyclohexyl)-7H-pyrrolo[2,3-d]pyrimidin-5-yl)phenyl)-3-(5-(tert-butyl)isoxazol-3-yl)urea], the IC50 [1] is reported as under 50 nM.

Work on CC1(C)CN([C@H]2CC[C@H](n3nc(-c4ccc(Oc5ccccc5)cc4F)c4c(N)ncnc43)CC2)CCN1 [Example 28, 1-((trans)-4-(3,3-dimethylpiperazin-1-yl)cyclohexyl)-3-(2-fluoro-4-phenoxyphenyl)-1H-pyrazolo[3,4-d]pyrimidin-4-amine] yielded an IC50 [1] of 50 to 250 nM.

Molecule Nc1ncnc2c1c(-c1ccc(Oc3ccccc3)cc1)cn2[C@H]1CC[C@@H](N2CCN3CCC[C@@H]3C2)CC1 [Example 49, 7-((cis)-4-((R)-hexahydropyrrolo[1,2-a]pyrazin-2(1H)-yl)cyclohexyl)-5-(4-phenoxyphenyl)-7H-pyrrolo[2,3-d]pyrimidin-4-amine] has an IC50 [1] of under 50 nM.

With Nc1ncnc2c1c(-c1ccc(Oc3ccccc3)cc1)cn2[C@H]1CC[C@@H](N2CC(N)C2)CC1 [Example 78, 7-((cis)-4-(3-aminoazetidin-1-yl)cyclohexyl)-5-(4-phenoxyphenyl)-7H-pyrrolo[2,3-d]pyrimidin-4-amine] the IC50 [1] was 250 to 10000 nM.
